Drawing on patent US8013159B2, “Quinoline derivatives as EP4 antagonists” (Merck Canada Inc., priority 2005, dated 2011), this text covers IC50 for six molecules.

The structures appear in SMILES notation.

T1 sequence (P35408 whole entry): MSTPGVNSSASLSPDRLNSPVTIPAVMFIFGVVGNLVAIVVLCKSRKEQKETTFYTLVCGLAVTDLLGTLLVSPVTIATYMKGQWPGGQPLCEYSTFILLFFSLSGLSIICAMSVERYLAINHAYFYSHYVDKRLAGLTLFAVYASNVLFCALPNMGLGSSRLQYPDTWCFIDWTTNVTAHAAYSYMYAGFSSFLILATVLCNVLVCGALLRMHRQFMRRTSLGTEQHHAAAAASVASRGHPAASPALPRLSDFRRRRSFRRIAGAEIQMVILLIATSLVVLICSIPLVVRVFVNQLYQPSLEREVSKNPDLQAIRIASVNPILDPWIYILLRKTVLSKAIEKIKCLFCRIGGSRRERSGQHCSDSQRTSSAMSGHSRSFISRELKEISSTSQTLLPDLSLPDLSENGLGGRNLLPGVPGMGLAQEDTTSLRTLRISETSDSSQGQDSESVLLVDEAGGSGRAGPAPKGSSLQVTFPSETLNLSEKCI

This experiment concerns the target T1, EP4 receptor (Homo sapiens, UniProt P35408).
T1 construct: expressed in transfected cells; membranes prepared by differential centrifugation
Put plainly: Prostanoid receptor binding assay (EP4), membranes of transfected HEK 293(ebna) cells. As to conditions: representative data, read-out: Potency in Binding Assay. As to the method: Prostanoid receptor cDNAs corresponding to full length coding sequences are subcloned into the appropriate sites of mammalian expression vectors and transfected into HEK 293(ebna) cells. HEK 293(ebna) cells expressing the individual cDNAs are grown under selection and individual colonies are isolated after 2-3 weeks of growth using the cloning ring method and subsequently expanded into clonal cell lines.
Transfected HEK 293(ebna) cells are maintained in culture, harvested and membranes are prepared by differential centrifugation, following lysis of the cells in the presence of protease inhibitors, for use in receptor binding assays. Prostanoid receptor binding assays (for DP1, DP2 (CRTH2), EP 1, EP2, EP3-11, EP4, FP, IP, and TP) are performed in 10 mM MES/KOH (pH 6.0) (EPs, FP and TP) or 10 mM HEPES/KOH (pH 7.4) (DPs and IP), containing 1 mM EDTA, 2.5-30 mM divalent cation and the appropriate radioligand. Synthetic compounds are added in dimethylsulfoxide which is kept constant at 1% (v/v) in all incubations. The reaction is initiated by addition of membrane protein. Non-specific binding is determined in the presence of 10 μM of the corresponding non-radioactive prostanoid. Incubations are conducted for 60-90 min at room temperature or 30° C. and terminated by rapid filtration. Specific binding is calculated by subtracting non specific binding from total binding. The residual specific binding at each ligand concentration is calculated and expressed as a function of ligand concentration in order to construct sigmoidal concentration-response curves. The binding affinity of the compounds is determined by calculating the equilibrium inhibition constant (Ki) from the equation Ki=InPt/1+[radioligand]/Kd where Kd is the equilibrium dissociation constant for the radioligand:receptor interaction and InPt is the inflection point of the dose-response curves.
For `CCOc1c2c(c(OCC)c3ncccc13)CN(c1ccc(CS(=O)(=O)NC(=O)Cc3ccccc3OC)cc1C)C2=O` [Example 1, N-{[4-(5,9-diethoxy-6-oxo-6,8-dihydro-7H-pyrrolo[3,4-g]quinolin-7-yl)-3-methylbenzyl]sulfonyl}-2-(2-methoxyphenyl)acetamide], the IC50 stood at 0.47 nM. Regarding `CCOc1c2c(c(OCC)c3ncccc13)CN(c1ccc(CS(=O)(=O)NC(=O)Cc3ccccc3C(F)(F)F)cc1C)C2=O` [Example 7, N-{[4-(5,9-diethoxy-6-oxo-6,8-dihydro-7H-pyrrolo[3,4-g]quinolin-7-yl)-3-methylbenzyl]sulfonyl}-2-[2-(trifluoromethyl)phenyl]acetamide], the IC50 is 0.42 nM.

Turning to `CCOc1c2c(c(OCC)c3ncccc13)CN(c1ccc(CS(=O)(=O)NC(=O)Cc3cccc4ccccc34)cc1C)C2=O` [Example 19, N-{[4-(5,9-diethoxy-6-oxo-6,8-dihydro-7H-pyrrolo[3,4-g]quinolin-7-yl)-3-methylbenzyl]sulfonyl}-2-(1-naphthyl)acetamide], the IC50 worked out at 0.72 nM.

In the case of `COc1cccc(OC)c1C1(C(=O)NS(=O)(=O)Cc2ccc(N3Cc4c(c(OCC(F)(F)F)c5cccnc5c4OCC(F)(F)F)C3=O)c(C)c2)CC1` [Example 33, (1-(2,6-dimethoxyphenyl)-N-({3-methyl-4-[6-oxo-5,9-bis(2,2,2-trifluoroethoxy)-6,8-dihydro-7H-pyrrolo[3,4-g]quinolin-7-yl]benzyl}sulfonyl)cyclopropanecarboxamide)], the IC50 turned out to be 0.83 nM. Turning to `CCOc1c2c(c(OCC)c3ncccc13)CN(c1ccc(CS(=O)(=O)NC(=O)C3(c4ccc(Cl)cc4Cl)CC3)cc1C)C2=O` [Example 39, 1-(2,4-dichlorophenyl)-N-{[4-(5,9-diethoxy-6-oxo-6,8-dihydro-7H-pyrrolo[3,4-g]quinolin-7-yl)-3-methylbenzyl]sulfonyl}cyclopropane-carboxamide], the IC50 was 0.76 nM. In the case of `COc1cccc(OC)c1C1(C(=O)NS(=O)(=O)Cc2ccc(N3Cc4c(c(OCC(F)(F)F)c5cccnc5c4OCC(F)(F)F)C3=O)c(Cl)c2)CC1` [Example 63, N-({3-chloro-4-[6-oxo-5,9-bis(2,2,2-trifluoroethoxy)-6,8-dihydro-7H-pyrrolo[3,4-g]quinolin-7-yl]benzyl}sulfonyl)-1-(2,6-dimethoxyphenyl)cyclopropane-carboxamide] it was 0.61 nM.
